Results: patent US12338256B2, “Aza-tetracyclic oxazepine compounds and uses thereof” (Genentech, Inc., priority 2022, dated 2025)

Experiments:
Assay type in all cases: cell-based
[1] = system: AsPC-1 (homozygous mutant KRAS G12D human pancreatic cell line); assay: KRAS 3D-Cell Proliferation Assay, AsPC-1 (Example 503); details: Homo sapiens, ASPC1, 168 h, AsPC-1 3D culture, 7 days, CellTiter-Glo 3D; read-out: Prolif AsPC-1 3D ATP IC50
Method in brief: (§1)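 KRAS G12D homozygous pancreatic lines and KRAS wild-type lung lines grown as 3D cultures in ultra-low-attachment wells in RPMI-1640/10% FBS, dosed after overnight with compound dilution series (0.3% DMSO final) for 7 days at 37 °C. ATP read by CellTiter-Glo 3D luminescence; IC50 from 4-parameter Hill fit, normalized to DMSO and 1 μM staurosporine.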

[2] = system: HPAC (homozygous mutant KRAS G12D human pancreatic cell line); assay: KRAS 3D-Cell Proliferation Assay, HPAC (Example 503); details: Homo sapiens, HPAC, 168 h, HPAC 3D culture, 7 days, CellTiter-Glo 3D; read-out: Prolif HPAC 3D ATP IC50
Method in brief: as §1

[3] = system: PC-9 (KRAS wild type human lung adenocarcinoma cell line); assay: KRAS 3D-Cell Proliferation Assay, PC-9 (Example 503); details: 168 h, PC-9 3D culture, 7 days, CellTiter-Glo 3D, read-out: Prolif PC9 3D ATP IC50
Procedure: Example 503: KRAS 3D-Cell Proliferation Assays. Cellular potencies of compounds are assessed by evaluating inhibition of proliferation in 3D cultures of homozygous mutant KRAS G12D human pancreatic cell lines (AsPC-1 and HPAC) as compared to a KRAS wild type human lung adenocarcinoma cell line (PC-9 and/or H1975). Cells are seeded into 384-well black round-bottom, ultra-low attachment assay plates in 50 uL cell growth medium (RPMI-1640 with 10% fetal bovine serum and 2 mM L-glutamine). After overnight incubation at 37° C. and 5% CO2, compounds solubilized in DMSO are added as dilution series to the wells in a total volume of 150 nL (0.3% DMSO final). The cells are incubated for 7 days at 37° C. and 5% CO2. Cell proliferation is quantitated by addition of 40 uL/well of CellTiter-GloÒ 3D (Promega), and the well contents are mixed 20× at high speed using liquid handling automation workstation (Bravo with 384-well head) and centrifuged at 1500 rpm for 2 minutes to eliminate bubbles. This reagent in combination with mechanical disruption releases the cellular ATP to promote activity in a luciferase-based enzyme/substrate chemiluminescent detection system. After a 30-minute incubation under ambient conditions with shaking and an additional 10 minutes without shaking, the luminescence is read on a plate reader (e.g., EnVision [PerkinElmer]). The results are normalized to percent inhibition based on the following control samples: DMSO (0% inhibition) and 1 μM staurosporine (100% inhibition). The normalized luminescence results are plotted against compound concentration, and the data are fit to a 4-parameter Hill equation to determine the IC50 values.

[4] = system: H1975 (KRAS wild type human lung adenocarcinoma cell line); assay: KRAS 3D-Cell Proliferation Assay, H1975 (Example 503); details: Homo sapiens, NCI-H1975, 168 h, H1975 3D culture, 7 days, CellTiter-Glo 3D; read-out: Prolif H1975 3D ATP IC50
Method in brief: as §1

CCc1cccc2cc(O)cc(-c3nc4c5c(nc(OC[C@@]67CCCN6C[C@H](F)C7)nc5c3F)N3C[C@H]5CC[C@H](N5)[C@H]3CO4)c12 [Compound 5, 5-ethyl-4-((5aS,6S,9R)-1-fluoro-12-(((2R,7aS)-2-fluorotetrahydro-1H-pyrrolizin-7a(5H)-yl)methoxy)-5a,6,7,8,9,10-hexahydro-5H-4-oxa-3,10a,11,13,14-pentaaza-6,9-methanonaphtho[1,8-ab]heptalen-2-yl)naphthalen-2-ol]
IC50 [1]: 6.28 nM
IC50 [2]: 7.06 nM
IC50 [3]: 9050 nM
IC50 [4]: 1400 nM

C=C1CN2CCC[C@@]2(COc2nc3c4c(nc(-c5nc(N)cc(C)c5C(F)(F)F)c(F)c4n2)O[C@@H](C)[C@@H]2[C@@H]4CC[C@H](CN32)N4)C1 [Compound 48, 6-((5S,5aS,6S,9R)-1-fluoro-5-methyl-12-(((S)-2-methylenetetrahydro-1H-pyrrolizin-7a(5H)-yl)methoxy)-5a,6,7,8,9,10-hexahydro-5H-4-oxa-3,10a,11,13,14-pentaaza-6,9-methanonaphtho[1,8-ab]heptalen-2-yl)-4-methyl-5-(trifluoromethyl)pyridin-2-amine]
IC50 [1]: 8.24 nM
IC50 [2]: 5.52 nM
IC50 [3]: ≥ 20000 nM
IC50 [4]: 5760 nM

Cc1c(F)c(N)cc(-c2nc3c4c(nc(OC[C@@H]5C[C@@H](F)CN5C)nc4c2F)N2C[C@H]4CC[C@H](N4)[C@H]2[C@H](C)O3)c1C(F)(F)F [Compound 26, 2-Fluoro-5-((5S,5aS,6S,9R)-1-fluoro-12-(((2S,4R)-4-fluoro-1-methylpyrrolidin-2-yl)methoxy)-5-methyl-5a,6,7,8,9,10-hexahydro-5H-4-oxa-3,10a,11,13,14-pentaaza-6,9-methanonaphtho[1,8-ab]heptalen-2-yl)-3-methyl-4-(trifluoromethyl)aniline]
IC50 [1]: 5.19 nM
IC50 [2]: 3.24 nM
IC50 [3]: 7640 nM
IC50 [4]: 1540 nM

C#Cc1cccc2cc(O)cc(-c3nc4c5c(nc(OC[C@@]67CCCN6C[C@H](F)C7)nc5c3F)N3C[C@H]5CC[C@H](CN5CC5COC5)[C@H]3CO4)c12 [Compound 51, 5-ethynyl-4-((5aS,6R,9R)-1-fluoro-12-(((2R,7aS)-2-fluorotetrahydro-1H-pyrrolizin-7a(5H)-yl)methoxy)-14-(oxetan-3-ylmethyl)-5a,6,7,8,9,10-hexahydro-5H-4-oxa-3,10a,11,13,14-pentaaza-6,9-ethanonaphtho[1,8-ab]heptalen-2-yl)naphthalen-2-ol]
IC50 [1]: 51.2 nM
IC50 [2]: 73 nM
IC50 [3]: 19500 nM
IC50 [4]: 1820 nM

C#Cc1cccc2cc(O)cc(-c3nc4c5c(nc(OCC67CCN6CC(F)(F)C7)nc5c3F)N3C[C@H]5CC[C@H](N5)[C@H]3[C@H](C)O4)c12 (single isomer, unassigned) [Compound 20]
IC50 [1]: 28.7 nM
IC50 [2]: 7.78 nM
IC50 [3]: 8680 nM
IC50 [4]: 2220 nM

Cc1cc(N)c(F)c(-c2nc3c4c(nc(OC[C@@]56CCCN5C[C@H](F)C6)nc4c2F)N2C[C@H]4CC[C@H](N4)[C@H]2[C@H](C)O3)c1C(F)(F)F [Compound 34, 2-Fluoro-3-((5S,5aS,6S,9R)-1-fluoro-12-(((2R,7aS)-2-fluorotetrahydro-1H-pyrrolizin-7a(5H)-yl)methoxy)-5-methyl-5a,6,7,8,9,10-hexahydro-5H-4-oxa-3,10a,11,13,14-pentaaza-6,9-methanonaphtho[1,8-ab]heptalen-2-yl)-5-methyl-4-(trifluoromethyl)aniline]
IC50 [1]: 0.692 nM
IC50 [2]: 0.54 nM
IC50 [3]: 6950 nM
IC50 [4]: 340 nM

Cc1c(F)c(N)cc(-c2nc3c4c(nc(OC[C@@]56CCCN5C[C@H](F)C6)nc4c2F)N2C[C@H]4CC[C@H](N4)[C@H]2[C@H](C)O3)c1C(F)(F)F [Compound 6, 2-Fluoro-5-((5S,5aS,6S,9R)-1-fluoro-12-(((2R,7aS)-2-fluorotetrahydro-1H-pyrrolizin-7a(5H)-yl)methoxy)-5-methyl-5a,6,7,8,9,10-hexahydro-5H-4-oxa-3,10a,11,13,14-pentaaza-6,9-methanonaphtho[1,8-ab]heptalen-2-yl)-3-methyl-4-(trifluoromethyl)aniline]
IC50 [1]: 0.561 nM
IC50 [2]: 0.247 nM
IC50 [3]: 4210 nM
IC50 [4]: 692 nM

C[C@@H]1Oc2nc(-c3cccc4cccc(Cl)c34)c(F)c3nc(OC[C@@]45CCCN4CC4(CC4(F)F)C5)nc(c23)N2C[C@H]3CC[C@H](N3)[C@@H]12 (stereo partly drawn) [Compound 27, (5S,5aS,6S,9R)-2-(8-chloronaphthalen-1-yl)-12-(((7a′S)-2,2-difluorodihydro-1′H,3′H-spiro[cyclopropane-1,2′-pyrrolizin]-7a′(5′H)-yl)methoxy)-1-fluoro-5-methyl-5a,6,7,8,9,10-hexahydro-5H-4-oxa-3,10a,11,13,14-pentaaza-6,9-methanonaphtho[1,8-ab]heptalene]
IC50 [1]: 32.1 nM
IC50 [2]: 68.1 nM
IC50 [3]: 2780 nM
IC50 [4]: 2390 nM

Cc1cc(N)nc(-c2nc3c4c(nc(OC[C@@]56CCCN5C[C@H](F)C6)nc4c2F)N2C[C@H]4CC[C@H](N4)[C@H]2CO3)c1C(F)(F)F [Compound 44, 6-((5aS,6S,9R)-1-fluoro-12-(((2R,7aS)-2-fluorotetrahydro-1H-pyrrolizin-7a(5H)-yl)methoxy)-5a,6,7,8,9,10-hexahydro-5H-4-oxa-3,10a,11,13,14-pentaaza-6,9-methanonaphtho[1,8-ab]heptalen-2-yl)-4-methyl-5-(trifluoromethyl)pyridin-2-amine]
IC50 [1]: 337 nM
IC50 [3]: ≥ 20000 nM

C[C@@H]1Oc2nc(-c3nc(N)ccc3C(F)(F)F)c(F)c3nc(OC[C@@]45CCCN4C[C@H](F)C5)nc(c23)N2C[C@H]3CC[C@H](N3)[C@@H]12 [Compound 85, 6-((5S,5aS,6S,9R)-1-fluoro-12-(((2R,7aS)-2-fluorotetrahydro-1H-pyrrolizin-7a(5H)-yl)methoxy)-5-methyl-5a,6,7,8,9,10-hexahydro-5H-4-oxa-3,10a,11,13,14-pentaaza-6,9-methanonaphtho[1,8-ab]heptalen-2-yl)-5-(trifluoromethyl)pyridin-2-amine]
IC50 [1]: 975 nM
IC50 [3]: ≥ 20000 nM

C[C@@H]1Oc2nc(-c3cc(N)c(F)cc3C(F)(F)F)c(F)c3nc(OC[C@]45CCN4CC(F)(F)C5)nc(c23)N2C[C@H]3CC[C@H](N3)[C@@H]12 [Compound 71, 5-((5S,5aS,6S,9R)-12-(((R)-3,3-Difluoro-1-azabicyclo[3.2.0]heptan-5-yl)methoxy)-1-fluoro-5-methyl-5a,6,7,8,9,10-hexahydro-5H-4-oxa-3,10a,11,13,14-pentaaza-6,9-methanonaphtho[1,8-ab]heptalen-2-yl)-2-fluoro-4-(trifluoromethyl)aniline]
IC50 [1]: 132 nM
IC50 [3]: ≥ 20000 nM

Cc1cc(N)nc(-c2nc3c4c(nc(OC[C@@]56CCCN5CC5(CC5(F)F)C6)nc4c2F)N2C[C@H]4CC[C@H](N4)[C@H]2CO3)c1C(F)(F)F (stereo partly drawn) [Compound 42, 6-((5aS,6S,9R)-12-(((7a′S)-2,2-difluorodihydro-1′H,3′H-spiro[cyclopropane-1,2′-pyrrolizin]-7a′(5′H)-yl)methoxy)-1-fluoro-5a,6,7,8,9,10-hexahydro-5H-4-oxa-3,10a,11,13,14-pentaaza[6,9]methanonaphtho[1,8-ab]heptalen-2-yl)-4-methyl-5-(trifluoromethyl)pyridin-2-amine]
IC50 [1]: 122 nM
IC50 [3]: 7040 nM
